How the values were obtained:
CF epithelia = assay: Transepithelial electrical properties in Ussing chambers; type: cell-based, human; conditions: 10 μM apical, n=9
Excerpt: (§1) For measurement of transepithelial electrical properties, a few epithelia from each culture preparation were mounted in Ussing chambers and studied as previously described (Zabner, J., J. J. Smith, P. H. Karp, J. H. Widdicombe, and M. J. Welsh. 1998. Loss of CFTR chloride channels alters salt absorption by cystic fibrosis airway epithelia in vitro. Mol. Cell. 2:397-403). Transepithelial resistance was 588±33 Ω·cm^2 (n=9) for non-CF and 493±24 Ω·cm^2 (n=9) for CF epithelia. The decrease in current after apical addition of 10 μM amiloride was 26.9±1.0 μA·cm^−2·hr^−1 (n=9) for non-CF epithelia and 20.0±1.3 μA·cm^−2·hr^−1 (n=9) for CF epithelia.

non-CF epithelia = assay: as above; type: cell-based, human; conditions: 10 μM apical, n=9
Excerpt: as §1

P. aeruginosa = assay: Growth in carbon-starved M9 media (O.D.); type: cell-based; conditions: M9 media supplemented at 100 mM
Protocol: FIGS. 5(A-G). […] A, B and C. Growth of P. aeruginosa (A), S. aureus, (B), and coagulase-negative Staphylococcus (C) were measured as O. D. M9 media alone is indicated by open triangle. Xylitol (closed circle), or succinate, mannitol, or sucrose (open circles), were added to M9 media at 100 mM as indicated. D. Nasal swabs were collected and cultured for 3 days in Lauria-Bertani media (open circles), in minimal M9 media (open squares), or in M9 media supplemented with 100 mM xylitol (closed circles). E, F and G. P. aeruginosa (E), S. aureus (F), and coagulase-negative Staphylococcus (G) were cultured in Lauria-Bertani media alone (open triangles), Lauria-Bertani media with 100 mM xylitol (closed circles), and Lauria-Bertani media containing tobramycin or levofloxacin (open circles).
To test the effect of xylitol on growth of different airway pathogens in a carbon-starved media, P. aeruginosa, S. aureus, and coagulase-negative Staphylococcus were grown overnight in Lauria-Bertani medium. The bacteria were then centrifuged and resuspended in M9 media containing either 100 mM succinate, mannitol, or sucrose, respectively, and grown overnight at 37° C. The bacteria were centrifuged and resuspended in M9 media alone. M9 media containing 100 mM xylitol, or 100 mM of the indicated metabolizable sugar, as positive control. The optical density (O.D.) was measured after 0, 1, 2, and 4 hours at 600 nm on a Beckman DU640 Spectrophotometer (Schaumburg, Ill.). To test the antibiotic effect of xylitol, P. aeruginosa, S. aureus, and coagulase-negative Staphylococcus were grown overnight in Lauria-Bertani medium. The bacteria were then centrifuged and resuspended in Lauria-Bertani media with and without 100 mM xylitol. As a positive control, antibiotics with specific activity to each of the bacteria were added to the media (40 μg/ml tobramycin or 40 μg/ml levofloxacin).

Row | SMILES | decrease in current after apical addition (CF epithelia) | decrease in current after apical addition (non-CF epithelia) | growth of P. aeruginosa (P. aeruginosa)
1 | N=C(N)NC(=O)c1nc(Cl)c(N)nc1N [amiloride] | 20.0±1.3 μA·cm^−2·hr^−1 | 26.9±1.0 μA·cm^−2·hr^−1 | –
2 | O=C(O)CCC(=O)O [succinate, reference compound] | – | – | allowed bacterial growth

Source: patent US6716819B2, “Use of xylitol to reduce ionic strength and activate endogenous antimicrobials for prevention and treatment of infections” (University of Iowa Research Foundation, priority 2000, dated 2004)
